103 molecules from patent publication US20110028719A1, “SCREENING METHODS FOR AMYLOID BETA MODULATORS” (priority 2006, published 2011) can be followed below.

This assay has as its target immobilized Aβ fibrils (Homo sapiens, UniProt P05067). As to the kind of experiment: FAC-MS assay of free Aβ monomer (indicator) binding to immobilized Aβ fibrils in the presence of test compounds. To be noted: FAC-MS screen; shift of free Aβ monomer breakthrough on immobilized Aβ fibrils in presence of compound; scale not given.

Sequence of immobilized Aβ fibrils (P05067 672-713 limits assumed): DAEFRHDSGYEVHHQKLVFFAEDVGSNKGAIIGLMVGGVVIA

In the case of `Cc1cc[n+](CC(=O)OC2CC(C)CCC2C(C)C)cc1` (stereo not shown), the “Aβ Shift” value was determined as 1.
On to `CC1CCC(C(C)C)C(OC(=O)C[n+]2ccccc2)C1` (stereo not shown), for which the “Aβ Shift” value is 1.
The same measure for `CC1CCC(C(C)C)C(OC(=O)CN2CCOCC2)C1` (stereo not shown): 1.
The same measure for `CC1CCN(CC(=O)OC2CC(C)CCC2C(C)C)CC1` (stereo not shown): 1.
Consider `CC1CCCC(NS(=O)(=O)c2cccs2)C1C` (stereo not shown), for which the “Aβ Shift” value is listed as 1.
Then `CC(C)(C)C1CC(C(=O)O)CC(C(C)(C)C)C1` (stereo not shown), with 1; and `CC(C)=CCCC12CCC(CO)(CO1)C(C)C2` (stereo not shown), with 1.
Then `CC(C)C1CCC(C)C(OC(=O)C2C3CCCCC32)C1` (stereo not shown), with 1.
For the molecule `CC(=O)OCC12COC(C)(CC1C)CC2C` (stereo not shown), the “Aβ Shift” value is recorded as 1.
Then `CCC(=O)OC1CCC(C)CC1C(C)(C)C(C)C` (stereo not shown), with 1; and `CC1CC(NC(=O)c2cccs2)CC(C)(C)C1` (stereo not shown), with 0; and `CC12CC3(C)CC(CC(N)=O)(C1)CC(C(N)=O)(C2)C3`, with 0.
Consider `CC12CC3CC(C)(C1)CC(O)(C3)C2`, for which the “Aβ Shift” value came out at 0.
Then `CC(N)C12CC3CC(C)(CC(C)(C3)C1)C2` (stereo not shown), with 0.
On to `CC1CC(NC(=O)c2cccc3ccccc23)CC(C)(C)C1` (stereo not shown), for which the “Aβ Shift” value was determined as 0.
The same measure for `CC1CC(OC(=O)/C=C/c2ccccc2)CC(C(C)C)C1` (stereo not shown): 0.
Then `CC1CC(NC(=O)C2CCC2)CC(C)(C)C1` (stereo not shown), with 0; and `CCCCCCCCC(=O)NC1CC(C)CC(C)(C)C1` (stereo not shown), with 0; and `CC1CC(NC(=O)C2(C)CC2(Cl)Cl)CC(C)(C)C1` (stereo not shown), with 0.
Then `COc1cccc(C(=O)OC2CC(C)CC(C)C2)c1` (stereo not shown), with 0; and `COc1cccc(OC)c1C(=O)OC1CC(C)CC(C)C1` (stereo not shown), with 0; and `CC1CC(C)CC(OC(=O)c2ccco2)C1` (stereo not shown), with 0.
Take `CC1CCC(O[C@H]2C=CC(=O)O2)C(C(C)C)C1` (stereo partly shown): the “Aβ Shift” value was 0.
On to `CC1CC(C)(C(=O)O)CCC1(C)C` (stereo not shown), for which the “Aβ Shift” value is recorded as 0.
For `Cc1cccc(NC(=O)C23CCC(C)(C(O)C2)C3(C)C)n1` (stereo not shown), the “Aβ Shift” value was 0.
The same measure for `CC1CCC(C(C)C)C(OC(=O)C2C3CCCCC32)C1` (stereo not shown): 0; for `CC(C)C(=O)O[C@@H]1[C@@H](OC(=O)C(C)C)[C@H](OC(=O)C(C)C)[C@H](O)[C@H](OC(=O)C(C)C)[C@H]1OC(=O)C(C)C`: 4.
Then `CC(C)(C)C(=O)O[C@@H]1[C@@H](OC(=O)C(C)(C)C)[C@H](OC(=O)C(C)(C)C)[C@H](O)[C@H](OC(=O)C(C)(C)C)[C@H]1OC(=O)C(C)(C)C`, with 5; and `CC(=O)O[C@@H]1[C@@H](OC(=O)C(C)(C)C)[C@H](OC(=O)C(C)(C)C)[C@H](OC(C)=O)[C@H](OC(=O)C(C)(C)C)[C@H]1OC(=O)C(C)(C)C`, with 4; and `CCC(=O)O[C@H]1[C@H](OC(=O)CC)[C@@H](OC(=O)CC)[C@H](OC(=O)CC)[C@@H](OC(=O)CC)[C@H]1OC(=O)CC`, with 4.
The same measure for `CC(C)C(=O)O[C@H]1[C@H](OC(=O)C(C)C)[C@@H](OC(=O)C(C)C)[C@H](OC(=O)C(C)C)[C@@H](OC(=O)C(C)C)[C@H]1OC(=O)C(C)C`: 5; for `CC(C)(C)C(=O)O[C@H]1[C@H](OC(=O)C(C)(C)C)[C@@H](OC(=O)C(C)(C)C)[C@H](OC(=O)C(C)(C)C)[C@@H](OC(=O)C(C)(C)C)[C@H]1OC(=O)C(C)(C)C`: 4; for `CC(C)CC(=O)O[C@@H]1[C@@H](OC(=O)CC(C)C)[C@H](OC(=O)CC(C)C)[C@H](O)[C@H](OC(=O)CC(C)C)[C@H]1OC(=O)CC(C)C`: 2.
As for `O=C(O[C@@H]1[C@@H](OC(=O)c2ccccc2)[C@H](OC(=O)c2ccccc2)[C@H](O)[C@H](OC(=O)c2ccccc2)[C@H]1OC(=O)c1ccccc1)c1ccccc1`, the “Aβ Shift” value stood at 2.
Then `CC(=O)O[C@H]1[C@@H](OC(=O)CC(C)C)[C@H](OC(=O)CC(C)C)[C@@H](OC(=O)CC(C)C)[C@H](OC(=O)CC(C)C)[C@H]1OC(=O)CC(C)C`, with 3.
With `CC1CCCC(C)C1CO` (stereo not shown), the “Aβ Shift” value was 1.
With `CC12CC3(C)CC(C)(C1)CC(CC(=O)O)(C2)C3`, the “Aβ Shift” value was 1.
In the case of `C=CC1CCC(O)C(O)C1` (stereo not shown), the “Aβ Shift” value came out at 1.
Then `Cl.NC1C2CC3C1C3C2Cl` (stereo not shown), with 1; and `CC(=O)NC1CC(Cl)CCC1C` (stereo not shown), with 1; and `CC(=O)C1C2CC3C(C2Cl)C31` (stereo not shown), with 1.
The same measure for `O=C(O)C1C2CC3C(C2Cl)C31` (stereo not shown): 1; for `CC1CCC(C(C)(C)C)C(O)C1` (stereo not shown): 1.
The same measure for `CC12CC3CC(O)(C1)CC(O)(C3)C2`: 1; for `CC12CC3CC(C)(C1)CC(C(Cl)C(=O)O)(C3)C2` (stereo not shown): 1.
Consider `CC1CCC(C(C)C)C(OC(=O)NN)C1` (stereo not shown), for which the “Aβ Shift” value was found to be 1.
As for `CC1CCC(C(C)C)C(OC(=O)C(O)O)C1` (stereo not shown), the “Aβ Shift” value was 1.
The same measure for `COC(=O)[C@@H]1C[C@H](O)C[C@H](C(=O)OC)C1`: 1.
On to `CC1CCC(C(C)CS)CC1S` (stereo not shown), for which the “Aβ Shift” value is 1.
Consider `CC(O)C#CC1(O)C(C)CCCC1(C)C` (stereo not shown), for which the “Aβ Shift” value is 1.
The same measure for `CC1CC(C)C(C(=O)c2ccccc2)C(O)C1` (stereo not shown): 1; for `OCC1(CO)CCCC(CO)(CO)C1O`: 1.
Then `COC1CCC(C(C)=O)C(O)C1` (stereo not shown), with 1; and `CC12CC3CC(C)(C1)CC(CC(=O)NNC(N)=O)(C3)C2`, with 2; and `CCN(CC)CC12CC3CC(C)(CC(C)(C3)C1)C2`, with 2.
Then `CC12CC3(C)CC(C)(C1)CC(C(=O)O)(C2)C3`, with 2; and `CC12CC3(C)CC(C)(C1)CC(C(=O)NCCO)(C2)C3`, with 2.
For the molecule `CC12CC3CC(C)(C1)CC(c1ccc(O)cc1)(C3)C2`, the “Aβ Shift” value is 2.
Then `Cc1ccc(C(=O)OC2CC(C)CCC2C(C)C)cc1C` (stereo not shown), with 2; and `Cc1cccc(NC(=O)C23CC4CC(C)(CC(C)(C4)C2)C3)c1`, with 2.
In the case of `CC12CC3(C)CC(C)(C1)CC(C(=O)NC(C)(C)C)(C2)C3`, the “Aβ Shift” value was 2.
The same measure for `CC1CCC(C(C)C)C(OC(=O)c2ccncc2)C1` (stereo not shown): 1.
Then `CC12CC3(C)CC(N)(C1)CC(O)(C2)C3`, with 1; and `CN(C)CCNC(=O)C12CC3CC(C)(CC(C)(C3)C1)C2`, with 1.
Then `CC12CC3(C)CC(C)(C1)CC(N)(C2)C3`, with 1; and `CC12CC3(C)CC(C(=O)O)(C1)CC(C(=O)O)(C2)C3`, with 1.
As for `CCC12CC3CC(O)(CC(O)(C3)C1)C2`, the “Aβ Shift” value is 1.
With `CC12CC3(C)CC(CC(=O)O)(C1)CC(CC(=O)O)(C2)C3`, the “Aβ Shift” value amounted to 1.
The same measure for `CN(C)C(=S)NC(=O)C12CC3CC(C)(CC(C)(C3)C1)C2`: 1.
For `CC1CCC(C(C)C)C(OCC(O)CNC(C)C)C1` (stereo not shown), the “Aβ Shift” value came to 1.
Consider `CC1CCC(C(C)C)C(OCC(O)CN2CCCCC2)C1` (stereo not shown), for which the “Aβ Shift” value amounted to 1.
Then `CC1CC2(C)CC(C)C1(CO)CO2` (stereo not shown), with 1.
For `O=C(O)C1CC(C(=O)O)C(C(=O)O)CC1C(=O)O` (stereo not shown), the “Aβ Shift” value is given as 1.
The same measure for `CC12CC3CC(C)(C1)CC(CN1CCOCC1)(C3)C2`: 1; for `CC1CCC(COC(=O)CN2CCCCC2)C(C)C1` (stereo not shown): 1; for `CC1CC(OC(=O)CN2CCCCC2)CC(C)(C)C1` (stereo not shown): 1.
The same measure for `C=CC1CCC(O)C(N(C)C(=S)Nc2ccccc2)C1` (stereo not shown): 1.
The same measure for `CC(NC(=O)C12CC3(C)CC(C)(CC(C)(C3)C1)C2)C(=O)O` (stereo not shown): 2; for `CN(C)CCOC(=O)C12CC3(C)CC(C)(CC(C)(C3)C1)C2`: 2.
Consider `CC1CCC(C(C)C)C(OC(=O)c2ccco2)C1` (stereo not shown), for which the “Aβ Shift” value came to 2.
`O=C(O)C12CC3CC(C(=O)O)(C1)CC(C(=O)O)(C3)C2`: the “Aβ Shift” value is on record as 2.
With `CC1CCCC(N/C=C2\C(=O)Nc3ccccc32)C1C` (stereo not shown), the “Aβ Shift” value came to 2.
Then `CC1CCC(COC(=O)C[N+]2(C)CCCCC2)C(C)C1` (stereo not shown), with 2; and `CC1CCC(C(C)C)C(OCC[N+](C)(C)C)C1` (stereo not shown), with 2.
The same measure for `CC1CCC(C(C)C)C(OCCC[N+](C)(C)C)C1` (stereo not shown): 2.
Take `CC[N+](CC)(CC)CCCOC1CC(C)CCC1C(C)C` (stereo not shown): the “Aβ Shift” value worked out at 2.
Then `CC1CCC(C(C)C)C(OC(=O)NC(=O)C(F)(F)F)C1` (stereo not shown), with 2; and `CC1CCCC(N2CNC(=S)NC2)C1C` (stereo not shown), with 2; and `CC1CCCC(N2CNc3nc4ccccc4n3C2)C1C` (stereo not shown), with 2.
Then `O=C(O)C1C2CC3C(OC(=O)C31)C2Cl` (stereo not shown), with 2; and `CC1CC(NN(C)C)C(C#N)(C#N)C(C)C1(C#N)C#N` (stereo not shown), with 2; and `CC12CC3CC(C)(C1)CC(CN)(C3)C2`, with 2.
In the case of `CC12CC3CC(C)(C1)CC(N)(C3)C2`, the “Aβ Shift” value is recorded as 2.
The same measure for `CC1CCCC(NC(=O)c2n[nH]c(=O)c3ccccc23)C1C` (stereo not shown): 2; for `CC1CC(NS(=O)(=O)c2cccs2)CC(C)(C)C1` (stereo not shown): 2.
The same measure for `CC1CCCC(NC(=O)Cc2cn(C)c3ccccc23)C1C` (stereo not shown): 2; for `CC12CC3(C)CC(N)(C1)CC(C(=O)O)(C2)C3`: 2; for `CC1CCCC(NC(=O)c2cc3sccc3n2C)C1C` (stereo not shown): 2.
With `CC1CCCC(NC(=O)c2csc3c2CCCC3)C1C` (stereo not shown), the “Aβ Shift” value was found to be 2.
The same measure for `CC1CCCC(NC(=O)Nc2cccs2)C1C` (stereo not shown): 2; for `CC1CCCC(NC(=O)Cn2cc3c(n2)CCCC3)C1C` (stereo not shown): 1; for `CC1CCCC(NC(=O)c2ccc3snnc3c2)C1C` (stereo not shown): 1.
The same measure for `Cc1nn(CC(=O)NC2CCCC(C)C2C)c2ccccc12` (stereo not shown): 1.
